Source: US10252997B2, “Monocyclic compound” (Takeda Pharmaceutical Company Limited, priority 2015, dated 2019)

How the values were obtained:
[1] = Anti-fatty liver effect (triglyceride amount in liver); type: in vivo; details: homo low-density lipoprotein receptor deficient mouse, choline-deficient amino acid diet, oral once per day for three weeks
From the text: As representative examples of anti-fatty liver effect, the action on fatty liver caused by non-alcoholic steatohepatitis was verified by the following method.
(§1) For efficacy evaluation of action on the above-mentioned fibrosis, 9-week-old, male, homo low-density lipoprotein receptor deficient mouse (Jackson Laboratories (Bar Harbor Me., USA)) was used. Specifically, a choline-deficient amino acid diet (A08111307, Research Diets, New Brunswick, N.J., USA) was fed to the above-mentioned mouse for one week, and a drug was administered for three weeks, and then the triglyceride amount in liver after the drug administration was measured.
(§2) For the above-mentioned drug administration group, the test compound suspended in 0.5% methylcellulose solution was orally administered by gavage using a stomach gavage needle once per day (n=8). […]
The measurement of the triglyceride amount in liver was performed by the following method. […] The total weight of the isolated liver was measured, and a part of the liver was immediately cryopreserved using dry ice. […] The dried substance was dissolved in 2-propanol, and the triglyceride concentration in the solution was measured by autoanalyzer (Hitachi 7180 type). The total triglyceride amount in the liver (mg/liver) was calculated from the weight of the liver used for the measurement and the total liver weight. […]

[2] = test system: collagen I gene expression level in liver; assay: Inhibitory effect on liver fibrosis caused by NASH (collagen I gene expression level in liver); type: in vivo; details: homo low-density lipoprotein receptor deficient mouse, choline-deficient amino acid diet, oral once per day for three weeks
Method: The action on liver fibrosis caused by non-alcoholic steatohepatitis (NASH) was verified by the following method.
as §1, with “collagen I gene expression level” for “triglyceride amount”
as §2
The measurement of the collagen I gene expression level in liver was performed by the following method. […] The total RNA was purified using RNeasy Mini Kit (Qiagen, Valencia, Calif., USA), and cDNA was prepared using High Capacity cDNA Reverse Transcription Kit (PN4368814, Applied Biosystems, Foster City, Calif., USA), and the collagen I gene expression level was measured (collagen type I alpha 1, Part Number 4351370, Applied Biosystems) by the quantitative PCR method (TaqMan Gene Expression Master Mix, PN4369016, Applied Biosystems). […]

C[C@@H](COc1cnc(-c2ccc(Oc3cccc(OCC4CC4)c3)cc2)o1)NC(N)=O [Example 82, 1-((2S)-1-((2-(4-(3-(cyclopropylmethoxy)phenoxy)phenyl)-1,3-oxazol-5-yl)oxy)propan-2-yl)urea]
inhibitory effect on fatty liver caused by non-alcoholic steatohepatitis (triglyceride amount in liver, FIG. 2) [1]: superior inhibitory effect on fatty liver caused by non-alcoholic steatohepatitis
inhibitory effect on liver fibrosis caused by non-alcoholic steatohepatitis (collagen I gene expression level in liver, FIG. 1) [2]: superior inhibitory effect on liver fibrosis caused by non-alcoholic steatohepatitis
